From patent US20230220122A1, “METHOD FOR PRODUCTION OF FUNCTIONAL POLYSACCHARIDE AND COSMETIC COMPOSITION” (CARBOEXPERT INC., priority 2019, published 2023)
Converted amounts (≈) assume the structure as drawn. “And” between values parts separate entries of the source, which are not always exact repeats. Identical values can stand only once.

Tested on: BALB/3T3 clone A31
Assay: in vitro 3T3 NRU phototoxicity test
Assay type: cell-based
Conditions: for PIF (Photo irritation factor): calculated from IC50 with and without UV (Phototox 2.6)
Procedure: This test was to evaluate phototoxicity after treating cells of BALB/3T3 clone A31 with a sample in the in vitro 3T3 NRU phototoxicity test. The phototoxicity was identified by evaluating cell viability, IC50 according to the presence or absence of light irradiation, and phototoxicity according to concentration response [photo irritation factor (PIF), and mean photo effect (MPE)].
In addition, as a negative control group, PBS diluted in DMEM was used.
Each of test substances was dissolved in PBS and diluted in steps at […] 2.
UVA (315-400 nm) causing a phototoxic reaction by activating chemical materials without toxicity to cells was irradiated, and the amount of light was 5 J/cm^2.
100 μl of cell suspension (1×10^4 cells/well) and medium were dispensed into two 96 well plates per group, and the cells were cultured for 24 hours in a cell incubator at 37° C. and 5% CO^2.
After removing the medium, the cells were washed once with 150 μl of warm PBS.
The UV irradiation plate was irradiated with UVA at a light intensity of 5 J/cm^2, and while UV was irradiated, the non-irradiated plate was shielded with aluminum foil and left at room temperature. After removing the solution, washing was performed twice with 150 μl of warm PBS. 100 μl of the medium was dispensed and the cells were cultured for 20±2 hours in a cell incubator at 37° C. and 5% CO2.
The growth and morphology of the cells were observed using a microscope, the medium was removed therefrom, and then the cells were washed once with 150 μl of warm PBS. After dispensing 100 μl of neutral red medium, the cells were incubated for 3 hours in a cell incubator at 37° C. and 5% CO2. After removing the neutral red medium, the cells were washed once with 150 μl of warm PBS. 150 μl of neutral red extract was dispensed, and the plate was stirred for 10 minutes while light was shielded.
Absorbance was measured at a wavelength of 540 nm by using a multi-channel microplate reader.
Phototoxicity was judged by calculating PIF and MPE values using IC50 according to the presence or absence of light irradiation.
PIF and MPE values were calculated from the measured absorbance values by using the software (Phototox 2.6, ZEBET at the BFR, Berlin Germany), and no statistical method was performed.

`CN(C)CCCN1c2ccccc2Sc2ccc(Cl)cc21` [CPZ] was tested. Which “Cell viability (% of NC)” value (UV (+), 0.04 μg/mL) did it give?
The value was 102.67 % of NC.

What about the “Cell viability (% of NC)” value (UV (+), 0.08 μg/mL) of the same compound?
The value was 89.09 % of NC.

What about the “Cell viability (% of NC)” value (UV (+), 0.16 μg/mL) of the same compound?
Its value is 98.75 % of NC.

What about the “Cell viability (% of NC)” value (UV (+), 0.31 μg/mL) of the same compound?
Its value is 106.73 % of NC.

What about the “Cell viability (% of NC)” value (UV (+), 0.63 μg/mL) of the same compound?
The value was 103.10 % of NC.

What about the “Cell viability (% of NC)” value (UV (+), 2.5 μg/mL) of the same compound?
Its value is 11.51 % of NC.

And the “Cell viability (% of NC)” value (UV (+), 5 μg/mL)?
Its value is 12.32 % of NC.

And the “IC50 (50% inhibitory concentration, cell viability)” value (UV (+), UVA 5 J/cm^2, listed as PC)?
Its value is 1.650 µg/mL (≈ 5.17 µM).

What about the “Cell viability (% of NC)” value (UV (−), 1.56 μg/mL) of the same compound?
Its value is 109.65 % of NC.

What about the “Cell viability (% of NC)” value (UV (−), 3.13 μg/mL) of the same compound?
The value was 103.07 % of NC.

What about the “Cell viability (% of NC)” value (UV (−), 6.25 μg/mL) of the same compound?
The value was 114.87 % of NC.

What about the “Cell viability (% of NC)” value (UV (−), 25 μg/mL) of the same compound?
Its value is 65.55 % of NC.

And the “Cell viability (% of NC)” value (UV (−), 50 μg/mL)?
The value was 9.50 % of NC.

What about the “Cell viability (% of NC)” value (UV (−), 100 μg/mL) of the same compound?
Its value is 9.37 % of NC.

And the “Cell viability (% of NC)” value (UV (−), 200 μg/mL)?
The value was 9.31 % of NC.

What about the “IC50 (50% inhibitory concentration, cell viability)” value (UV (−), UV not irradiated, listed as PC) of the same compound?
The value was 28.043 µg/mL (≈ 87.9 µM).

What about the “PIF (Photo irritation factor)” value (listed as PC) of the same compound?
Its value is 17.144.

What about the “PIF (Photo irritation factor)” value (listed as positive control material) of the same compound?
Its value is 17.1444 and 17.144.

And the “MPE (Mean photo effect)” value (calculated from concentration response with and without UV (Phototox 2.6))?
The value was 0.459.
